According to patent US12264156B2, “Compounds and pharmaceutical compositions thereof for the treatment of diseases” (GALAPAGOS NV, priority 2018, dated 2025):

Experiments:
[1] = test system: IL-23 induced psoriatic-like epidermal hyperplasia; test: Murine model of psoriatic-like epidermal hyperplasia induced by intradermal injections of IL-23; type: in vivo, mouse; settings: 10 mg/kg p.o. b.i.d.
Procedure: Mouse recombinant IL-23, carrier free (Cat #14-8231) is provided by e-Bioscience (Frankfurt, Germany).
Balb/c mice (female, 18-20 g body weight) were obtained from Janvier Labs (Le Genest-Saint-Isle, France). Mice are kept on a 12 h light/dark cycle. Temperature was maintained at 22° C., food and water are provided ad libitum.
The design of the study was adapted from Rizzo H L. et al. (Rizzo et al. 2011). On the first day (D1), the mice were shaved around the two ears. For 4 consecutive days (D1 to D4), the mice received a daily intradermal dose of mouse recombinant IL-23 (1 μg/20 μL in PBS/0.1% BSA) in the right pinna ear and 20 μL of PBS/0.1% BSA in the left pinna ear under anesthesia.
From D1 to D5, mice were dosed with test-compound or with vehicle, 1 h prior IL-23 injection.
The thickness of both ears was measured daily with an automatic caliper. Body weight was assessed at initiation and at sacrifice. On fifth day, 2 h after the last dosing, the mice were sacrificed. The pinnae of the ear were cut, excluding cartilage. The pinnae, placed in a vial containing 1 mL of RNAlater® solution.
There were 8 mice per group. The results were expressed as mean±SEM and statistical analysis was performed using one-way ANOVA followed by Dunnett's post-hoc test versus IL-23 vehicle groups.

mouse CAIA model = test: Murine collagen-antibody induced arthritis model (CAIA); type: in vivo; settings: 60 mg/kg p.o. b.i.d.
Procedure: ArthritoMabrm antibody cocktail for inducing arthritis and lipopolysaccharide (LPS) from Escherichia Coli serotype O55:B5 were purchased from MD Biosciences (OakdalMNnn., USA, Cat #CIA-MAB-50); PBS 1× (GIBCO, Cat #140190-086) was obtained from ThermoFisher Scientific, and Enbrel® (etanercept) was purchased from Chondrex (L'Isle d'Abeau, France, Cat #3771910).
Five to seven week old BALBc female mice were obtained from Janvier Labs (Le Genest-Saint-Isle, France). Mice were kept on a 12 h light/dark cycle. Temperature was maintained at 22° C., food and water were provided ad libitum.
The therapeutic effects of the compounds of the invention were tested in the mouse CAIA model (MD Biosciences 2008; Nandakumar et al. 2003). At day 1 (D1), mice were randomly divided into equal groups containing 10 mice. […] Bodyweight and clinical score of each mouse was assessed every day except the weekend until the end of the study. […] For histology readouts, right and left hind paws were individually collected in vials (25 mL minimum) filled with 4% buffered formaldehyde for a minimum of 24 h to a maximum of 4 days at RT.
Arthritis was scored according to the method of Khachigian 2006; Lin et al 2007 and Nishida et al. 2004 (Khachigian 2006; Lin et al. 2007; Nishida et al. 2004). […]

[2] = test system: lung fibrosis induced by radiation; test: Radiation induced fibrosis mouse model; type: in vivo; settings: 60 mg/kg p.o. b.i.d.
Excerpt: Pneumonitis and lung fibrosis are the major radiation-induced complications following thoracic radiotherapy, which is one of the major treatment of lung and breast cancers, lymphomas and hematopoietic transplant conditioning. The objective of this model was to evaluate the effect of a compound of the invention in lung fibrosis induced by radiation in mice (Favaudon et al. 2014), in particular on lung functionality (Flexivent) and fibrosis marker (Collagen I).
7 weeks old (18-22 gr) female C57BL/6J mice from Charles River (Écully, France), batch number S1672) were maintained on 12 h light/dark cycle at 22° C. with ad libitum access to tap water and food. […]
Body weight was recorded once a week, and on D23, lung function measurement under anesthesia was realized by Flexivent (Devos et al. 2017) for all groups (6 successful measurement per group) before sacrifice.
Lungs were collected and fixed in 4% formaldehyde for 24 h before embedding in paraffin. […] The anti-collagen I antibody was detected and amplified by ImmPress kit (Vector Laboratories, 3, Accent Park, Bakewell Road, Orton Southgate, Peterborough, PE2 6XS, United Kingdom, Cat #MP-7401). The immunostained sections were then scanned (Nanozoomer, Hamamatsu) before quantification by image analysis (CaloPix software, TRIBVN Healthcare). Data were expressed as percentage collagen I area per area of lung tissue. […]

COc1cc(-c2cnc3cc(OCCN4CCOCC4)ccn23)cc2c1C(=O)N(CC(F)(F)F)CC2 [Cpd 88, 8-methoxy-6-[7-(2-morpholinoethoxy)imidazo [1,2-a]pyridin-3-yl]-2-(2,2,2-trifluoroethyl)-3,4-dihydroisoquinolin-1-one]
ear thickness compared to IL-23 vehicle group [1]: statistically significant decrease of the ear thickness | Area Under the Curve (AUC) of clinical score vs. vehicle group (mouse CAIA model): statistically significant reduction of Area Under the Curve (AUC) of clinical score | ColI (collagen I) extent vs. vehicle group [2]: statistically significant reduction of ColI (collagen I) extent
